Article PMC4291223, “Inhibitors of CLK Protein Kinases Suppress Cell Growth and Induce Apoptosis by Modulating Pre-mRNA Splicing” (PLoS ONE, 2015)

Experiments:
[1] = system: mRNA isoforms harboring PTCs in MDA-MB-468 cells; experiment: Fluorescence pulse-chase RNA labeling assay; assay type: cell-based, human; conditions: 50 μM Cpd-1 or 5 μM Cpd-2
Description: MDA-MB-468 cells (5 × 10^5) were seeded into 6-well plates and incubated overnight. The cells were treated with each compound for 6 h and incubated with culture medium containing 5-EU (Invitrogen) to label cellular RNA. After incubation for 1 h, the medium was replaced with EU-free fresh medium and the cells were cultured for a further 24 h to allow degradation of the labeled RNA (chase). Cells were harvested before and after the chase and EU-labeled RNA was isolated using a Click-iT Nascent RNA Capture Kit (Invitrogen) according to the manufacturer’s instructions. The isolated RNA was analyzed by quantitative RT-PCR to measure the amount of each mRNA splice isoform.

Aurora kinase A = Aurora kinase A (Homo sapiens, UniProt O14965); experiment: Kinase panel assay (Z'-LYTE, SelectScreen), Aurora kinase A; assay type: biochemical; conditions: 1 μM compound, 100 μM ATP; among kinases inhibited by more than 50%
Sequence of Aurora kinase A (O14965 whole entry): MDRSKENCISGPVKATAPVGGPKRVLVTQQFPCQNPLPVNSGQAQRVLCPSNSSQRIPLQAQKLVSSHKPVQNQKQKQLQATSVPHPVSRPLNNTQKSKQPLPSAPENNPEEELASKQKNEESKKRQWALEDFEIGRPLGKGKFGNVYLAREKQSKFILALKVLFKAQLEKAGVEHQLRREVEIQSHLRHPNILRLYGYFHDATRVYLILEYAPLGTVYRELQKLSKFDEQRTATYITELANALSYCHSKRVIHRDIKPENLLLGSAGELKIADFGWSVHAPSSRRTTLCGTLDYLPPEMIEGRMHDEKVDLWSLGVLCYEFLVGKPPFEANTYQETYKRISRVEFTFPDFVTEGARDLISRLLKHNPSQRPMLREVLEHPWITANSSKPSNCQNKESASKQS
Description: (§1) Kinase panel assays were performed using the FRET-based Z’- LYTE enzymatic kinase assay system (Life Technologies, Carlsbad, CA), which was carried out using the SelectScreen Kinase Profiling Service (Life Technologies). The standard reaction contained 2 μM peptide substrate, 100 μM ATP, 50 mM HEPES (pH 7.5), 0.01% Brij-35, 10 mM MgCl2, 1 mM EGTA, and each kinase. Cpd-1, Cpd-2, and Cpd-3 at two point concentration (100 and 1000 nM) with duplicate data points (n = 2) were assayed following the detailed procedures outlined in the SelectScreen. The full assay protocol and conditions can be obtained at www.lifetechnologies.com. Percent inhibition represents a ratio of phosphorylated product formed in the presence of the compound compared with phosphorylated product formed in reactions containing 1% DMSO. Inhibition data indicates the mean value of kinase inhibition from duplicate data.

[2] = system: S6K, EIF3D, and EGFR in MDA-MB-468 cells; experiment: Immunoblot of S6K, EIF3D and EGFR protein levels; assay type: cell-based, human; conditions: MDA-MB-468, 24 h
Description: (§2) Cells were lysed in radioimmunoprecipitation assay buffer containing 50 mM Tris-HCl (pH 7.6), 150 mM NaCl, 1% Triton X-100, and protease inhibitor cocktail tablets (Roche). After removal of the insoluble matter by centrifugation at 15,000 rpm for 15 min, the protein concentrations of the supernatants were determined using a BCA Protein Assay Kit (Pierce Biotechnology, Rockford, IL). The lysates were directly combined with one-quarter volume of 5× sample buffer [25 mmol/L Tris-HCl pH 6.8, 10% glycerol, 0.8% SDS, and 0.004% bromophenol blue] and boiled at 100°C for 5 min. The samples were subjected to 5–20% gradient SDS-polyacrylamide gel electrophoresis, and the separated proteins were electrophoretically transferred to polyvinylidene difluoride membranes using an I-blot System (Invitrogen). The membranes were incubated with primary antibodies and visualized using enhanced chemiluminescence reagents (GE Healthcare). The primary antibodies were as follows: anti-phospho-SR (1H4), anti-SR (Invitrogen), anti-EGFR, anti-EIF3D, anti-GAPDH (Santa Cruz Biotechnology, Santa Cruz, CA), anti-S6K and anti-PARP (Cell Signaling Technology, Danvers, MA).

[3] = system: phospho-SR proteins in MDA-MB-468 cells; experiment: Immunoblot of phospho-SR proteins; assay type: cell-based, human; conditions: MDA-MB-468, 3 h, anti-pan-phospho-SR antibody
Description: as §2

SRPK3 = target: T1, SRPK3 (Homo sapiens, UniProt Q9UPE1); experiment: In vitro kinase assay (ADP-Glo), SRPK3; assay type: biochemical; conditions: 5 µM ATP
T1 construct: purchased Millipore
T1 sequence (Q9UPE1 whole entry): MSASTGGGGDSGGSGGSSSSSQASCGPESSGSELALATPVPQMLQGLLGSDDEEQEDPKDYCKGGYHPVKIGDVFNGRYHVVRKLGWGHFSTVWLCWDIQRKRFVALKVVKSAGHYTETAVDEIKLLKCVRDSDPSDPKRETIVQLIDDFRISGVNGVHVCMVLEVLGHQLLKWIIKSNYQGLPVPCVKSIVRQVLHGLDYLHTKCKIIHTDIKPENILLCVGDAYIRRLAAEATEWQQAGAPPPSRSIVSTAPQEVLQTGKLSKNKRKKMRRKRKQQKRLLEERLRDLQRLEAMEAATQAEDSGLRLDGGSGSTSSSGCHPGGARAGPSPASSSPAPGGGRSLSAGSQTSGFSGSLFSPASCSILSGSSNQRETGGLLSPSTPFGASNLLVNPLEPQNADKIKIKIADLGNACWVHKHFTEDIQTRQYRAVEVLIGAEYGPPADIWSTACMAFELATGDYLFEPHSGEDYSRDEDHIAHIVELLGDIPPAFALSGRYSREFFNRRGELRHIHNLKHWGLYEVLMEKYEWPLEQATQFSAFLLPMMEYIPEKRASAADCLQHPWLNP
Description: The ATP concentration for each assay was adjusted to the Km for each kinase. Kinase assays for SRPK1–3 and CLK1 were performed using the ADP-Glo™ assay (Promega, Madison, WI). The kinase buffer contained 25 mM HEPES (pH 7.5), 10 mM magnesium acetate, 1 mM DTT, 0.01% BSA, and 0.01% Tween-20. The reaction mixtures contained 50 ng/mL SRPK1, 100 ng/mL SRPK2 or SRPK3, or 300 ng/mL CLK1 and 3 μM substrate peptide [GRSRSRSRSRSRSRSR] (Thermo Scientific). After incubating the enzyme, peptide, and compounds for 10 min, kinase reactions were initiated by adding ATP to a final concentration of 5 µM, followed by incubation for 30 min (15 min for SRPK1). The kinase reactions were terminated by adding ADP-Glo™ reagent (Promega). ADP was detected using a kinase detection reagent (Promega). The kinase activity of CLK2 was measured using the LANCE® Ultra assay (Perkin-Elmer, Waltham, MA) with ADP-Glo assay buffer. […] The enzyme reactions were terminated by adding 30 mM EDTA, and phosphorylated ULight-MBP peptides were detected using a europium-labeled anti-phospho-MBP antibody diluted with detection buffer (Perkin-Elmer). The plates were read using an EnVision 2102 multilabel reader (Perkin-Elmer). We defined the absorbance of the reaction without enzyme as 100% inhibitory activity and that of the complete reaction mixture as 0% inhibitory activity. […]

PI3Kα = PI3Kα (Homo sapiens, UniProt P42336); experiment: Kinase panel assay (Z'-LYTE, SelectScreen), PI3Kα; assay type: biochemical; conditions: 1 μM compound, 100 μM ATP; among kinases inhibited by more than 50%
Sequence of PI3Kα (P42336 whole entry): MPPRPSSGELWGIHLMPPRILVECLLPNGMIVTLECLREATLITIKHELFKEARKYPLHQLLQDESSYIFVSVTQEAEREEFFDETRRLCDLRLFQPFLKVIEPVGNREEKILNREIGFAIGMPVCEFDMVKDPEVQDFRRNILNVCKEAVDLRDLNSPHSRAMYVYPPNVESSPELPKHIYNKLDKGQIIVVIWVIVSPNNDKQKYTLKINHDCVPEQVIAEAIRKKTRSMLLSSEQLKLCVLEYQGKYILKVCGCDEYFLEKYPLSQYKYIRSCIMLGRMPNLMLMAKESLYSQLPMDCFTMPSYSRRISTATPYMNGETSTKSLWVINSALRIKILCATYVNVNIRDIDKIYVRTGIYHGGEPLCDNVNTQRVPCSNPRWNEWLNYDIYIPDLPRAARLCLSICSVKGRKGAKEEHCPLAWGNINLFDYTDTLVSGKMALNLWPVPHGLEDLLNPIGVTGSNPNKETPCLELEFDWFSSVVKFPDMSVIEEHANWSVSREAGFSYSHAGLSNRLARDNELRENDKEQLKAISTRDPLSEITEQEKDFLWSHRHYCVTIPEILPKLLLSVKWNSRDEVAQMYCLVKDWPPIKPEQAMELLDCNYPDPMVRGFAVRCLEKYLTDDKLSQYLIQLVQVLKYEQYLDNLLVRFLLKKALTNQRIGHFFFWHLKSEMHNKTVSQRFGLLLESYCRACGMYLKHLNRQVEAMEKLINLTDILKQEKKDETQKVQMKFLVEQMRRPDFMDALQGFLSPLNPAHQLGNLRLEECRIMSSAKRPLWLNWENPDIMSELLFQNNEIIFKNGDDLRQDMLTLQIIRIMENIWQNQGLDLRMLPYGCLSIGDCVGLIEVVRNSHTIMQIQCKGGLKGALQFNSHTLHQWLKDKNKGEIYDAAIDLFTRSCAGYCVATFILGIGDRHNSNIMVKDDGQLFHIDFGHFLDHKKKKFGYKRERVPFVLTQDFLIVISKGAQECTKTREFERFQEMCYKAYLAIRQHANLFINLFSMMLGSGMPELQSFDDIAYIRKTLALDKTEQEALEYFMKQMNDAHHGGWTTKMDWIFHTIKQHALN
Sequence of PI3Kα (P27986 whole entry partner): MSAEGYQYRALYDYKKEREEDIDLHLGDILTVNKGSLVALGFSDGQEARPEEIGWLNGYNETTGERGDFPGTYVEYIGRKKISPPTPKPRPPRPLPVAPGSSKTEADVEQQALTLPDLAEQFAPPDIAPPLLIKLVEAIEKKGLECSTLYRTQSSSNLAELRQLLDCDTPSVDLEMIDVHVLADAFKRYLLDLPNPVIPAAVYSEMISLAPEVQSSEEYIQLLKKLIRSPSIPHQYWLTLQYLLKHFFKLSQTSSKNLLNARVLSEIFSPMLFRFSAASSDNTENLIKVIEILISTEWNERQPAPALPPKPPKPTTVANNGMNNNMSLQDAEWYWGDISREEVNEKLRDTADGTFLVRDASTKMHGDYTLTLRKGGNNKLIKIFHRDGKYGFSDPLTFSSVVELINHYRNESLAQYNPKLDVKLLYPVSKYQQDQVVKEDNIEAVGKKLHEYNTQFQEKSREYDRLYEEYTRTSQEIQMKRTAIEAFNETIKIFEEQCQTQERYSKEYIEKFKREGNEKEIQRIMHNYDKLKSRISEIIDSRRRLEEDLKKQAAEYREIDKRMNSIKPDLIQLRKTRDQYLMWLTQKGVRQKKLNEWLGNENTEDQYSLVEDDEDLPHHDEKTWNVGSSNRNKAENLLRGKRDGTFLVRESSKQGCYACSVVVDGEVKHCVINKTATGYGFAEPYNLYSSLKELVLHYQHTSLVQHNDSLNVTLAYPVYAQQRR
Description: as §1

SMILES	amounts of S6K mRNA isoforms harboring PTCs (exons 6–8, exons 6–10) versus canonical S6K exons 6–7 after 24 h chase [1]	inhibition of Aurora kinase A in kinase panel (Aurora kinase A)	protein levels of S6K, EIF3D, and EGFR [2]	Phospho-SRSF1 (SF2) level [3]	phosphorylation levels of SRSF4 (SRp75) [3]	IC50 (SRPK3)	inhibition of PI3Kα in kinase panel (PI3Kα)
CC(C)(CCc1nnn[nH]1)c1ccc(C(=O)Nc2cn3cc(C(F)(F)F)ccc3n2)cc1 [Cpd-1, 4-(2-methyl-4-(1H-tetrazol-5-yl)butan-2-yl)-N-(6-(trifluoromethyl)imidazo[1,2-a]pyridin-2-yl)benzamide]	significantly lower	moderately inhibited	–	–	–	–	–
CC(C)(C)c1ccc(C(=O)Nc2cn3cc(-c4cn[nH]c4)ccc3n2)cn1 [Cpd-2, 6-tert-butyl-N-(6-(1H-pyrazol-4-yl)imidazo[1,2-a]pyridin-2-yl)nicotinamide]	significantly lower	–	reduced the protein levels of S6K, EIF3D, and EGFR in a concentration-dependent manner	decreased	at lower concentrations than Cpd-1	230 nM	moderately inhibited
CC(C)(CO)c1ccc(C(=O)Nc2cn3cc(-c4cn[nH]c4)ccc3n2)cc1 [Cpd-3, 4-(1-hydroxy-2-methylpropan-2-yl)-N-(6-(1H-pyrazol-4-yl)imidazo[1,2-a]pyridin-2-yl)benzamide]	–	moderately inhibited	–	decreased	at lower concentrations than Cpd-1	260 nM	–
